Measured values taken from patent US20050130252A1, “Stabilized susceptibility tests of aerobic pathogens” (Wyeth Holdings Corporation, priority 2003, published 2005).
In brackets after ≈: the same amount, converted by molar mass. Read-outs that look alike come from different tables or passages of the source.

Legend:
[1] = system: E. coli ATCC 25922; experiment: Broth microdilution MIC; format: cell-based, Escherichia coli; settings: for MIC: Escherichia coli
Description: (§1) The process for preparing susceptibility test medium are the following steps: • a. Preparing Mueller Hinton Broth II medium by adding 22 grams powdered media to 1.0 liter distilled water; • b. Autoclaving (121° C., 15 psi, 15 minutes) and cooling the medium; • c. Adding Oxyrase® up to about 10% final volume and keeping at 35-37° C. in an incubator for 30 minutes; • d. Adding about 50 μL to each well of a 96 well microtiter plate; • e. Weighing drug and adding broth to drug to bring up to about (standard 128 μg/ml); • f. Adding 50 μL of the drug to the first column of the titer plate; • g. Diluting by two-fold serial diluting across or down the plate. • h. Preparing a Prompt™ inoculum at 10^8 CFU/ml; • i. Diluting inoculum 1:100 in the broth at […] in 9.9 ml (1:100) is 10^6 colony forming units (CFU) forming the adjusted inoculum; • j. Adding 50 μL of the adjusted inoculum to the wells of the microtiter plate; • k. Incubating the plates at 35-37° C. for 18-22 hours; and • l. Reading, with the unaided eye, the MIC.
(§2) The in vitro activities of tigecycline and control antibiotics were determined by the broth microdilution method as recommended by the NCCLS. (National Committee for Clinical Laboratory Standards, 2003. Methods for Dilution Antimicrobial Susceptibility Tests for Bacteria That Grow Aerobically; Approved Standards: M7-A6, Sixth ed, vol. 23., National Committee for Clinical Laboratory Standards Wayne, Pa.) was used for the standard procedures. MBH with 5% lysed horse blood was used for testing S. pneumoniae and Haemophilus Test Medium was used for testing H. influenzae. Oxyrase® (Oxyrase Inc, Mansfield, Ohio) was used according to the manufacturer's instructions by adding 1 ml of Oxyrase® to 50 ml of media. Media age studies were performed by preparing MHB in multiple flasks, then storing the media under various conditions. MICs were usually performed in duplicate on each day of testing. Storage under anaerobic conditions was conducted in an anaerobic chamber (MACS MG 1000, Don Whitley Scientific LTD). The pH of the media was determined by pH meter (Corning 430). A comparison of the in vitro activity of tigecycline by agar and broth dilution methodolgies with and without Oxyrase® against clinical isolates is shown in Table 1.

[2] = system: P. aeruginosa ATCC 27853; experiment: Broth microdilution MIC; format: cell-based, Pseudomonas aeruginosa; settings: Pseudomonas aeruginosa, ATCC27853, read-out: Minimal Inhibitory Concentration, P. aeruginosa ATCC 27853
Description: as §1, §2

[3] = system: E. coli ATCC 25922; experiment: Time-kill assay, fresh vs aged Mueller-Hinton broth; format: cell-based, Escherichia coli; settings: FIG. 1
Description: Time-kill assays were performed by the broth macrodilution method in accordance with the NCCLS guidelines (NCCLS. 1999. Methods for Determining Bactericidal Activity of Antimicrobial Agents; Approved Guidelines: M26-A, vol. 19. National Committee for Clinical Laboratory Standards, Wayne, Pa.). A starting inoculum of approximately 10^6 CFU/ml and a final concentration of the antibiotic equal to four times the MIC were employed for these assays. Flasks containing 50 ml of MHB II with the appropriate antimicrobial agent were inoculated with […] of the test organism in logarithmic growth phase. Test flasks (250 ml) were incubated with shaking (150 RPM) in a 35° C. water bath. Aliquots were removed for the determination of viable counts at 0, 2, 4, 6 and 24 hours. Serial dilutions were prepared in sterile 0.85% sodium chloride solution. The diluted samples (0.05 ml) were plated onto appropriate agar plates trypticase soy agar (TSA) with a spiral plater (Don Whitley Scientific LTD). The plates were incubated at 35° C. in ambient air for 18-22 hours and the number of colonies were determined on the ProtoCOL plate reader plater (Don Whitley Scientific LTD). Killing curves were constructed by plotting the log10 CFU/ml versus time over 24 hours and the change in bacterial concentration was determined. Data is shown graphically in FIG. 1. Presented in Table 3 are the minimal inhibitory concentration results of the effect of media age, fresh vs. aged and Oxyrase® on the activity of tigecycline.
To further establish this effect, a time kill experiment was performed with E. coli ATCC 25922 in fresh and aged media at […] and 1 μg/ml of tigecycline, which represents 1×, and 4×MIC of this organism determined in aged media. […]

[4] = Table 8, E. coli ATCC 25922, Mueller Hinton Broth + Oxyrase, n = 240
[5] = Table 8, E. coli ATCC 25922, Mueller Hinton Broth, n = 320
[6] = Table 9, E. coli ATCC 25922, Mueller Hinton Broth + Oxyrase, n = 33
[7] = Table 9, E. coli ATCC 25922, Mueller Hinton Broth, n = 90

Compound: CN(C)c1cc(NC(=O)CNC(C)(C)C)c(O)c2c1C[C@H]1C[C@H]3[C@H](N(C)C)C(O)=C(C(N)=O)C(=O)[C@@]3(O)C(O)=C1C2=O [Tigecycline, tigecycline]
- MIC ([1]; ATCC25922, 0 h, E. coli ATCC 25922, Day 0, Pre-prepared media, room temperature, N = 6): 0.12 µg/mL (≈ 0.205 µM)
- MIC ([1]; ATCC25922, 0 h, E. coli ATCC 25922, Day 0, media Fresh from Powder 2° C., N = 6): 0.03 to 0.06 µg/mL (≈ 0.0512 to 0.102 µM)
- MIC ([1]; ATCC25922, 0 h, E. coli ATCC 25922, Day 0, media Fresh from Powder, room temperature, N = 6): 0.03 µg/mL (≈ 0.0512 µM)
- MIC ([1]; ATCC25922, 24 h, E. coli ATCC 25922, Day 1, Pre-prepared media, room temperature, N = 6): 0.12 to 0.25 µg/mL (≈ 0.205 to 0.427 µM)
- MIC ([1]; ATCC25922, 24 h, E. coli ATCC 25922, Day 1, media Fresh from Powder 2° C., N = 6): 0.03 to 0.06 µg/mL (≈ 0.0512 to 0.102 µM)
- MIC ([1]; ATCC25922, 24 h, E. coli ATCC 25922, Day 1, media Fresh from Powder, room temperature, N = 6): 0.06 µg/mL (≈ 0.102 µM)
- MIC ([1]; ATCC25922, 168 h, E. coli ATCC 25922, Day 7, Pre-prepared media, room temperature, N = 6): 0.12 to 0.25 µg/mL (≈ 0.205 to 0.427 µM)
- MIC ([1]; ATCC25922, 168 h, E. coli ATCC 25922, Day 7, media Fresh from Powder 2° C., N = 6): 0.06 µg/mL (≈ 0.102 µM)
- MIC ([1]; ATCC25922, 168 h, E. coli ATCC 25922, Day 7, media Fresh from Powder, room temperature, N = 6): 0.12 µg/mL (≈ 0.205 µM)
- MIC ([1]; ATCC25922, 336 h, E. coli ATCC 25922, Day 14, Pre-prepared media, room temperature, N = 6): 0.12 to 0.25 µg/mL (≈ 0.205 to 0.427 µM)
- MIC ([1]; ATCC25922, 336 h, E. coli ATCC 25922, Day 14, media Fresh from Powder 2° C., N = 6): 0.12 to 0.25 µg/mL (≈ 0.205 to 0.427 µM)
- MIC ([1]; ATCC25922, 336 h, E. coli ATCC 25922, Day 14, media Fresh from Powder, room temperature, N = 6): 0.12 to 0.25 µg/mL (≈ 0.205 to 0.427 µM)
- MIC ([1]; ATCC25922, 336 h, read-out: Minimal Inhibitory Concentration, E. coli ATCC 25922, media Aged Aerobic (2 weeks at RT under room air), N = 4): 0.12 to 0.25 µg/mL (≈ 0.205 to 0.427 µM)
- MIC ([1]; ATCC25922, 504 h, E. coli ATCC 25922, Day 21, media Fresh from Powder 2° C., N = 6): 0.25 µg/mL (≈ 0.427 µM)
- MIC ([1]; ATCC25922, 504 h, E. coli ATCC 25922, Day 21, media Fresh from Powder, room temperature, N = 6): 0.12 to 0.25 µg/mL (≈ 0.205 to 0.427 µM)
- MIC ([1]; ATCC25922, 672 h, E. coli ATCC 25922, Day 28, Pre-prepared media, room temperature, N = 6): 0.12 to 0.25 µg/mL (≈ 0.205 to 0.427 µM)
- MIC ([1]; ATCC25922, 672 h, E. coli ATCC 25922, Day 28, media Fresh from Powder 2° C., N = 6): 0.12 µg/mL (≈ 0.205 µM)
- MIC ([1]; ATCC25922, 672 h, E. coli ATCC 25922, Day 28, media Fresh from Powder, room temperature, N = 6): 0.12 to 0.25 µg/mL (≈ 0.205 to 0.427 µM)
- MIC ([1]; ATCC25922, read-out: Minimal Inhibitory Concentration (modal value), E. coli ATCC 25922, Aged Media + Oxyrase, N = 8): 0.12 µg/mL
- MIC ([1]; ATCC25922, read-out: Minimal Inhibitory Concentration (modal value), E. coli ATCC 25922, Aged media, N = 8): 0.25 µg/mL (≈ 0.427 µM)
- MIC ([1]; ATCC25922, read-out: Minimal Inhibitory Concentration (modal value), E. coli ATCC 25922, Fresh Media + Oxyrase, N = 8): 0.12 µg/mL
- MIC ([1]; ATCC25922, read-out: Minimal Inhibitory Concentration (modal value), E. coli ATCC 25922, Freshly Prepared Media, N = 8): 0.12 µg/mL (≈ 0.205 µM)
- MIC ([1]; ATCC25922, read-out: Minimal Inhibitory Concentration, E. coli ATCC 25922, 2% Oxyrase): 0.03 µg/mL (≈ 0.0512 µM)
- MIC ([1]; ATCC25922, read-out: Minimal Inhibitory Concentration, E. coli ATCC 25922, Aged Media + Oxyrase, N = 8): 0.12 to 0.25 µg/mL
- MIC ([1]; ATCC25922, read-out: Minimal Inhibitory Concentration, E. coli ATCC 25922, Aged media, N = 8): 0.25 to 0.5 µg/mL (≈ 0.427 to 0.854 µM)
- MIC ([1]; ATCC25922, read-out: Minimal Inhibitory Concentration, E. coli ATCC 25922, Commercially Prepared media, N = 4): 0.12 to 0.25 µg/mL (≈ 0.205 to 0.427 µM)
- MIC ([1]; ATCC25922, read-out: Minimal Inhibitory Concentration, E. coli ATCC 25922, Fresh Media + Oxyrase, N = 8): 0.06 to 0.12 µg/mL
- MIC ([1]; ATCC25922, read-out: Minimal Inhibitory Concentration, E. coli ATCC 25922, Freshly Prepared Media, N = 8): 0.12 to 0.25 µg/mL (≈ 0.205 to 0.427 µM)
- MIC ([1]; ATCC25922, read-out: Minimal Inhibitory Concentration, E. coli ATCC 25922, Freshly Prepared media, N = 4): 0.03 µg/mL (≈ 0.0512 µM)
- MIC ([1]; ATCC25922, read-out: Minimal Inhibitory Concentration, E. coli ATCC 25922, MHB II + 0.05% Catalase): 0.5 µg/mL
- MIC ([1]; ATCC25922, read-out: Minimal Inhibitory Concentration, E. coli ATCC 25922, MHB II + 0.05% L-ascorbic Acid): 2 µg/mL
- MIC ([1]; ATCC25922, read-out: Minimal Inhibitory Concentration, E. coli ATCC 25922, MHB II + 0.05% L-cysteine): 0.5 µg/mL
- MIC ([1]; ATCC25922, read-out: Minimal Inhibitory Concentration, E. coli ATCC 25922, MHB II + 0.05% Sodium Pyruvate): 0.12 µg/mL
- MIC ([1]; ATCC25922, read-out: Minimal Inhibitory Concentration, E. coli ATCC 25922, MHB II + 0.05% Thioglycolate): 0.12 µg/mL
- MIC ([1]; ATCC25922, read-out: Minimal Inhibitory Concentration, E. coli ATCC 25922, MHB II + 2% Oxyrase): 0.06 µg/mL
- MIC ([1]; ATCC25922, read-out: Minimal Inhibitory Concentration, E. coli ATCC 25922, Mueller Hinton Broth II (Fresh)): 0.06 to 0.25 µg/mL (≈ 0.102 to 0.427 µM)
- MIC ([1]; ATCC25922, read-out: Minimal Inhibitory Concentration, E. coli ATCC 25922, Mueller Hinton Broth II (MHB II)): 0.12 to 0.25 µg/mL (≈ 0.205 to 0.427 µM)
- MIC ([1]; ATCC25922, read-out: Minimal Inhibitory Concentration, E. coli ATCC 25922, No Oxyrase): 0.12 µg/mL (≈ 0.205 µM)
- MIC ([1]; ATCC25922, read-out: Minimal Inhibitory Concentration, E. coli ATCC 25922, media Aged Anaerobic, N = 4): 0.03 to 0.06 µg/mL (≈ 0.0512 to 0.102 µM)
- Number of Occurrences of MIC 0.06 ug/ml [1, 4]: 130
- Number of Occurrences of MIC 0.12 ug/ml [1, 4]: 103
- Number of Occurrences of MIC 0.25 ug/ml [1, 4]: 5
- Number of Occurrences of MIC 1 ug/ml [1, 4]: 2
- Number of Occurrences of MIC 0.12 ug/ml [1, 5]: 24
- Number of Occurrences of MIC 0.25 ug/ml [1, 5]: 210
- Number of Occurrences of MIC 0.5 ug/ml [1, 5]: 23
- Number of Occurrences of MIC 1 ug/ml [1, 5]: 58
- Number of Occurrences of MIC 2 ug/ml [1, 5]: 4
- Number of Occurrences of MIC 4 ug/ml [1, 5]: 1
- Number of Occurrences of MIC 0.03 ug/ml [1, 6]: 3
- Number of Occurrences of MIC 0.06 ug/ml [1, 6]: 13
- Number of Occurrences of MIC 0.12 ug/ml [1, 6]: 14
- Number of Occurrences of MIC 0.25 ug/ml [1, 6]: 3
- Number of Occurrences of MIC 0.06 ug/ml [1, 7]: 1
- Number of Occurrences of MIC 0.12 ug/ml [1, 7]: 15
- Number of Occurrences of MIC 0.25 ug/ml [1, 7]: 47
- Number of Occurrences of MIC 0.5 ug/ml [1, 7]: 27
- MIC ([2]; 2% Oxyrase): 8 µg/mL (≈ 13.7 µM)
- MIC ([2]; No Oxyrase): 16 µg/mL (≈ 27.3 µM)
- Time kill, growth of E. coli ATCC25922 in aged media ([3]; 0.12 μg/ml of tigecycline, aged media): regrowth of the strain after 6 h exposure
- Time kill, growth of E. coli ATCC25922 in fresh media ([3]; 0.12 and 1 μg/ml of tigecycline, fresh media): suppressed the growth
- Difference in viable growth, fresh vs aged media (time kill kinetics) ([3]; E. coli ATCC 25922): > 3 log10
